Here are results for 22 compounds from ChEMBL document CHEMBL3792342, “Synthesis and biological evaluation of 2-arylimino-3-pyridin-thiazolineone derivatives as antibacterial agents” (Bioorg Med Chem Lett, 2016).

Data set [1] is described as follows: Hemolytic activity in human erythrocytes at 200 uM. Format: ADME, cell-based. As to conditions: erythrocyte.
Data set [2] deals with Staphylococcus epidermidis. Nature of the data set: Bactericidal activity against Staphylococcus epidermidis ATCC 35984. Format: functional. Conditions: RP62A.
Data set [3] in a line: Cytotoxicity against African green monkey Vero cells. Format: cell-based. As to conditions: chlorocebus sabaeus.
Data set [4] concerns Staphylococcus epidermidis. Description: Antibacterial activity against Staphylococcus epidermidis ATCC 35984 by broth micro-dilution method. Format: functional. Conditions: RP62A.
For another data set, the system named is Escherichia coli. Nature of the data set: Antibacterial activity against Escherichia coli ATCC 25922 by broth micro-dilution method. Format: functional. (In general: Dilution methods test growth across graded concentrations, often in twofold steps.)
The next data set relates to Staphylococcus aureus. Description: Antibacterial activity against methicillin-resistant Staphylococcus aureus 8282 by broth micro-dilution method. Type of data set: functional.

Structures are written as SMILES. In brackets after ≈: the same amount, converted by molar mass.

What is called MBC is the lowest tested concentration that kills the bacteria rather than only halting them. As usually defined, the CC50 is the concentration at which the toxic effect on the cells reaches its halfway point. In general, MIC refers to the lowest concentration that inhibits growth of the organism. `Cc1ncccc1N1C(=O)/C(=C/c2ccc(-c3cccc(C(=O)O)c3)s2)S/C1=N\c1ccccc1`: in data set [1], the Activity entry is “Non-toxic”. Besides, the MBC in data set [2] amounted to 100 µM (≈ 49.8 µg/mL). The compound further yielded a CC50 in data set [3] greater than 200 µM. Also, the minimal inhibitory concentration (MIC) in data set [4] was 12.5 µM (≈ 6.22 µg/mL); against Escherichia coli, greater than 200 µM; in the data set with Staphylococcus aureus it was 12.5 µM (≈ 6.22 µg/mL).
For `O=C(O)c1cccc(-c2ccc(/C=C3\S/C(=N\c4ccccc4)N(c4cccc(F)n4)C3=O)o2)c1`, in data set [1], the Activity entry is “Non-toxic”. Also, in data set [2], the MBC was determined as 100 µM (≈ 48.5 µg/mL). In data set [3], this compound displayed a CC50 greater than 200 µM. Besides, the MIC in data set [4] was 6.25 µM (≈ 3.03 µg/mL); against Escherichia coli, greater than 200 µM; in the data set on Staphylococcus aureus it was 6.25 µM (≈ 3.03 µg/mL).
Consider `O=C(O)c1cccc(-c2ccc(/C=C3\S/C(=N\c4ccc(Cl)cc4)N(c4ccccc4)C3=O)o2)c1`, for which the Activity entry in data set [1] was “Non-toxic”. In data set [2], this compound had an MBC of 100 µM (≈ 50.1 µg/mL). The CC50 in data set [3] was greater than 200 µM. In addition, the MIC was 6.25 µM (≈ 3.13 µg/mL) in data set [4], greater than 200 µM with Escherichia coli and 6.25 µM (≈ 3.13 µg/mL) against Staphylococcus aureus.
In the case of `O=C(O)c1cccc(-c2ccc(/C=C3\S/C(=N\c4ccccc4)N(c4ccc(F)cn4)C3=O)s2)c1`, the Activity result in data set [1] is on record as “Non-toxic”. The MBC in data set [2] is 50 µM (≈ 25.1 µg/mL). Moreover, the half-maximal cytotoxic concentration (CC50) in data set [3] is greater than 200 µM. Besides, the MIC was 3.13 µM (≈ 1.57 µg/mL) in data set [4], greater than 200 µM with Escherichia coli and 3.13 µM (≈ 1.57 µg/mL) against Staphylococcus aureus.
With `O=C(O)c1cccc(-c2ccc(/C=C3\S/C(=N\c4ccccc4)N(c4ccc(Cl)cc4)C3=O)s2)c1`, in data set [1], the Activity result is reported as “Non-toxic”. The same compound returned a minimal bactericidal concentration (MBC) in data set [2] of 25 µM (≈ 12.9 µg/mL). Also, in data set [3], the CC50 was greater than 200 µM. In addition, the minimum inhibitory concentration (MIC) in data set [4] was 1.56 µM (≈ 0.807 µg/mL); with Escherichia coli, greater than 200 µM; against Staphylococcus aureus, 3.13 µM (≈ 1.62 µg/mL).
As for `O=C(O)c1cccc(-c2ccc(/C=C3\S/C(=N\c4ccccc4)N(c4cccnc4Cl)C3=O)o2)c1`, the Activity entry in data set [1] is listed as “Non-toxic”. Besides, the MBC in data set [2] amounted to 50 µM (≈ 25.1 µg/mL). Further, the CC50 in data set [3] is greater than 200 µM. Moreover, the MIC was 3.13 µM (≈ 1.57 µg/mL) in data set [4], greater than 200 µM against Escherichia coli and 6.25 µM (≈ 3.14 µg/mL) against Staphylococcus aureus.
For the compound `O=C(O)c1cccc(-c2ccc(/C=C3\S/C(=N\c4ccc(Cl)cc4)N(c4ccc(Cl)cc4)C3=O)o2)c1`, the Activity result in data set [1] is listed as “Non-toxic”. Besides, the MBC in data set [2] was greater than 200 µM. Further, the CC50 in data set [3] is greater than 200 µM. The MIC in data set [4] was 25 µM (≈ 13.4 µg/mL); in the data set on Escherichia coli it was greater than 200 µM; against Staphylococcus aureus, 25 µM (≈ 13.4 µg/mL).
Turning to `O=C(O)c1cccc(-c2ccc(/C=C3\S/C(=N\c4ccccc4)N(c4ccc(F)cc4)C3=O)s2)c1`, the Activity entry in data set [1] is “Non-toxic”. This compound returned an MBC in data set [2] of 25 µM (≈ 12.5 µg/mL). In addition, the CC50 in data set [3] is greater than 200 µM. Besides, the MIC in data set [4] was 6.25 µM (≈ 3.13 µg/mL); in the data set with Escherichia coli, greater than 200 µM; in the data set on Staphylococcus aureus it was 12.5 µM (≈ 6.26 µg/mL).
With `O=C(O)c1cccc(-c2ccc(/C=C3\S/C(=N\c4ccccc4)N(c4ccc(F)cn4)C3=O)o2)c1`, the Activity result in data set [1] is “Non-toxic”. This compound also gave an MBC in data set [2] greater than 200 µM. Besides, the CC50 in data set [3] is greater than 200 µM. For the same compound, the MIC is 12.5 µM (≈ 6.07 µg/mL) in data set [4], greater than 200 µM in the data set on Escherichia coli and 12.5 µM (≈ 6.07 µg/mL) in the data set with Staphylococcus aureus.
For `O=C(O)c1cccc(-c2ccc(/C=C3\S/C(=N\c4ccc(Cl)cc4)N(c4ccccn4)C3=O)o2)c1`, the Activity entry in data set [1] was “Non-toxic”. Also, the MBC in data set [2] came out at 50 µM (≈ 25.1 µg/mL). The compound also had a CC50 in data set [3] greater than 200 µM. Moreover, the results for the MIC (in data set [4]; against Escherichia coli; against Staphylococcus aureus) were 6.25 µM (≈ 3.14 µg/mL), greater than 200 µM and 6.25 µM (≈ 3.14 µg/mL), respectively.
As to `O=C(O)c1cccc(-c2ccc(/C=C3\S/C(=N\c4ccc(Cl)cc4)N(c4ccc(Cl)cc4)C3=O)s2)c1`, the Activity result in data set [1] is “Non-toxic”. In data set [2], this compound yielded a minimal bactericidal concentration (MBC) greater than 200 µM. This compound also gave a CC50 in data set [3] greater than 200 µM. The results for the MIC (in data set [4]; in the data set with Escherichia coli; in the data set on Staphylococcus aureus) were 12.5 µM (≈ 6.89 µg/mL), greater than 200 µM and 25 µM (≈ 13.8 µg/mL), respectively.
As to `O=C(O)c1cccc(-c2ccc(/C=C3\S/C(=N\c4ccc(Cl)cc4)N(c4ncccc4F)C3=O)o2)c1`, the Activity entry in data set [1] was “Non-toxic”. Further, the MBC in data set [2] was greater than 200 µM. In data set [3], this compound showed a CC50 greater than 200 µM. Besides, the MIC in data set [4] is 12.5 µM (≈ 6.5 µg/mL); in the data set with Escherichia coli, greater than 200 µM; in the data set with Staphylococcus aureus it was 12.5 µM (≈ 6.5 µg/mL).
For `O=C(O)c1cccc(-c2ccc(/C=C3\S/C(=N\c4ccc(F)cc4)N(c4ccccn4)C3=O)o2)c1`, the Activity entry in data set [1] is recorded as “Non-toxic”. Besides, the MBC in data set [2] was greater than 200 µM. The compound also had a CC50 in data set [3] greater than 200 µM. The MIC is 12.5 µM (≈ 6.07 µg/mL) in data set [4], greater than 200 µM with Escherichia coli and 12.5 µM (≈ 6.07 µg/mL) against Staphylococcus aureus.
Consider `COc1cccc(OC)c1C(=O)N[C@@H]1C(=O)N2[C@@H]1SC(C)(C)[C@@H]2C(=O)O` [METHICILLIN], for which the Activity entry in data set [1] is “Non-toxic”. This compound also registered a minimal bactericidal concentration (MBC) in data set [2] greater than 200 µM. The compound also showed a CC50 in data set [3] greater than 200 µM. In addition, the MIC in data set [4] was 3.13 µM (≈ 1.19 µg/mL); in the data set on Escherichia coli it was greater than 200 µM; with Staphylococcus aureus, 100 µM (≈ 38 µg/mL).
In the case of `O=C(O)c1cccc(-c2ccc(/C=C3\S/C(=N\c4ccccc4)N(c4cccnc4Cl)C3=O)s2)c1`, the Activity entry in data set [1] is given as “Non-toxic”. For the same compound, the minimum bactericidal concentration (MBC) in data set [2] was 6.3 µM (≈ 3.26 µg/mL). The same compound came in with a CC50 in data set [3] greater than 200 µM. For the same compound, the MIC is 1.56 µM (≈ 0.808 µg/mL) in data set [4], greater than 200 µM against Escherichia coli and 3.13 µM (≈ 1.62 µg/mL) with Staphylococcus aureus.
For the compound `CCc1ccccc1/N=C1\S/C(=C\c2ccc(OCC(=O)O)c(OC)c2)C(=O)N1c1ccccc1CC`, the Activity entry in data set [1] was “Non-toxic”. For the same compound, the MBC in data set [2] came to 100 µM (≈ 51.7 µg/mL). Also, in data set [3], the midpoint of cytotoxicity, the CC50, lay at 50 µM. Moreover, the MIC is 25 µM (≈ 12.9 µg/mL) in data set [4], greater than 200 µM in the data set on Escherichia coli and 25 µM (≈ 12.9 µg/mL) in the data set on Staphylococcus aureus.
On to `O=C(O)c1cccc(-c2ccc(/C=C3\S/C(=N\c4ccccc4)N(c4ccc(F)cc4)C3=O)o2)c1`, for which the Activity entry in data set [1] is listed as “Non-toxic”. This compound also registered an MBC in data set [2] of 50 µM (≈ 24.2 µg/mL). This compound came in with a CC50 in data set [3] greater than 200 µM. Further, the MIC in data set [4] was 25 µM (≈ 12.1 µg/mL); in the data set on Escherichia coli it was greater than 200 µM; in the data set on Staphylococcus aureus, 25 µM (≈ 12.1 µg/mL).
As for `O=C(O)c1cccc(-c2ccc(/C=C3\S/C(=N\c4ccc(F)cc4)N(c4ccc(F)cc4)C3=O)s2)c1`, in data set [1], the Activity result is “Non-toxic”. In data set [2], this compound showed an MBC of 100 µM (≈ 51.9 µg/mL). The compound further came in with a 50% cytotoxic concentration (CC50) in data set [3] greater than 200 µM. For the same compound, the minimum inhibitory concentration (MIC) in data set [4] is 6.25 µM (≈ 3.24 µg/mL); against Escherichia coli, greater than 200 µM; in the data set with Staphylococcus aureus it was 6.25 µM (≈ 3.24 µg/mL).
`O=C(O)c1cccc(-c2ccc(/C=C3\S/C(=N\c4ccccc4)N(c4ccc(Cl)cc4)C3=O)o2)c1`: in data set [1], the Activity entry is given as “Non-toxic”. Also, the MBC in data set [2] worked out at 50 µM (≈ 25 µg/mL). Moreover, the CC50 in data set [3] is greater than 200 µM. Besides, the MIC in data set [4] was 6.25 µM (≈ 3.13 µg/mL); against Escherichia coli it was greater than 200 µM; with Staphylococcus aureus, 6.25 µM (≈ 3.13 µg/mL).
With `O=C(O)c1cccc(-c2ccc(/C=C3\S/C(=N\c4ccccc4)N(c4cccnc4[N+](=O)[O-])C3=O)s2)c1`, the Activity result in data set [1] is reported as “Non-toxic”. Further, the MBC in data set [2] stood at 12.6 µM (≈ 6.66 µg/mL). This compound yielded a CC50 in data set [3] greater than 200 µM. Besides, the MIC was 1.56 µM (≈ 0.825 µg/mL) in data set [4], greater than 200 µM in the data set on Escherichia coli and 3.13 µM (≈ 1.65 µg/mL) with Staphylococcus aureus.
Take `O=C(O)c1cccc(-c2ccc(/C=C3\S/C(=N\c4ccc(F)cc4)N(c4ccc(F)cc4)C3=O)o2)c1`: in data set [1], the Activity result was “Non-toxic”. The compound further displayed an MBC in data set [2] greater than 200 µM. Also, the CC50 in data set [3] is greater than 200 µM. Further, the MIC in data set [4] was 100 µM (≈ 50.2 µg/mL); with Escherichia coli, greater than 200 µM; with Staphylococcus aureus, 100 µM (≈ 50.2 µg/mL).
Turning to `O=C(O)c1cccc(-c2ccc(/C=C3\S/C(=N\c4ccccc4)N(c4ncccc4F)C3=O)o2)c1`, the Activity entry in data set [1] is “Non-toxic”. In data set [2], this compound had an MBC greater than 200 µM. This compound also had a CC50 in data set [3] greater than 200 µM. Besides, the MIC in data set [4] is 12.5 µM (≈ 6.07 µg/mL); against Escherichia coli, greater than 200 µM; against Staphylococcus aureus it was 12.5 µM (≈ 6.07 µg/mL).
